The target of the experiment is T1, recombinant guanylate cyclase reporter cell line (Rattus norvegicus, UniProt P19686+P20595).
T1 construct: expressed in transfected cells
T1 sequence (P19686 1-690): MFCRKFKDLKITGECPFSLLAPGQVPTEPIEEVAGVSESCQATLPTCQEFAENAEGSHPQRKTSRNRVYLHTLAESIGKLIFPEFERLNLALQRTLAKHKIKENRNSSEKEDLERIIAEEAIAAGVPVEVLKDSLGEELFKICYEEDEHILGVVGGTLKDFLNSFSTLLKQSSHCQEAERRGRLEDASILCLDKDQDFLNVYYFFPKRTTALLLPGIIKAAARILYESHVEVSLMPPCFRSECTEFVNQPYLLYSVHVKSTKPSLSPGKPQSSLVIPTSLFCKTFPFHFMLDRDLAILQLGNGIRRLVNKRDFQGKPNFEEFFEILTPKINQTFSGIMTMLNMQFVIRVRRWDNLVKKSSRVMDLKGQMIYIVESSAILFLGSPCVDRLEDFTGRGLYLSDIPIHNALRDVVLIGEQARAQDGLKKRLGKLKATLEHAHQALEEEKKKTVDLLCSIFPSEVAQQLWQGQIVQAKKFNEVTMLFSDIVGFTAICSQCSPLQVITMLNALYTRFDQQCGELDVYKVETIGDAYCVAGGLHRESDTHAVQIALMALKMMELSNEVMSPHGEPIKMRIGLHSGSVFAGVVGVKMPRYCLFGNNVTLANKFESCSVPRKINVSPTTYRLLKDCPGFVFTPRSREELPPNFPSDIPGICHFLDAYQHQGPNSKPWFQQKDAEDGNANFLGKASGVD
T1 sequence (P20595 1-619): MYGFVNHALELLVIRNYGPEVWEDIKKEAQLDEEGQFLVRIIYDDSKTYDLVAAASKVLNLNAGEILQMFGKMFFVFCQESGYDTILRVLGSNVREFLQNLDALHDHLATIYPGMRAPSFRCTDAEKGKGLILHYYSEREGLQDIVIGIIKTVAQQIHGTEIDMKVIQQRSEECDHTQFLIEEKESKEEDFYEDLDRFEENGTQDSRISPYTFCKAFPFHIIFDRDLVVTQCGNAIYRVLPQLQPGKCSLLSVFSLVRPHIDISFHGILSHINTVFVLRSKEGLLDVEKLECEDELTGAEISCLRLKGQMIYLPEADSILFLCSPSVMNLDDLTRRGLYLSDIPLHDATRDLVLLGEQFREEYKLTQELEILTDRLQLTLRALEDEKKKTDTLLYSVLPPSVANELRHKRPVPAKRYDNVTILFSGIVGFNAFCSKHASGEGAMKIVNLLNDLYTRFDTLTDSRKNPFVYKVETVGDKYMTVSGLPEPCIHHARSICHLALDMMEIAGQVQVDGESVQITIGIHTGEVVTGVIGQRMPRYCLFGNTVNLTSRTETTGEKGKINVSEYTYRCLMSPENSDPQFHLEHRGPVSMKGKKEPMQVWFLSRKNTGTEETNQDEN
The experiment can be described thus: Effect on a recombinant guanylate cyclase reporter cell line (B-2). Type of experiment: cell-based. To be noted: in some cases mean values for individual determinations. How it is done:
B-2. Effect on a Recombinant Guanylate Cyclase Reporter Cell Line
The cellular effect of the inventive compounds is determined using a recombinant guanylate cyclase reporter cell line, as described in F. Wunder et al., Anal. Biochem. 339, 104-112 (2005).
Representative MEC values (MEC=minimum effective concentration) for the inventive compounds are shown in the table below (in some cases as mean values for individual determinations): […]

Structures can show the parent of a compound that is named as a salt.

On to `Cc1cc(OCc2c(F)ccc(F)c2F)n2nc(C)c(C(=O)Nc3cnn4ccccc34)c2c1` [Example 23, 2,5-Dimethyl-N-(pyrazolo[1,5-a]pyridin-3-yl)-7-[(2,3,6-trifluorobenzyl)oxy]pyrazolo[1,5-a]pyridine-3-carboxamide], for which the “MEC (minimum effective concentration)” value turned out to be 0.3 µM. As for `Cc1cc(OCc2c(F)cccc2F)n2nc(C)c(C(=O)NCC3CCc4ccccc4N3)c2c1` (racemic) [Example 82, rac-7-[(2,6-Difluorobenzyl)oxy]-2,5-dimethyl-N-(1,2,3,4-tetrahydroquinolin-2-ylmethyl)pyrazolo[1,5-a]pyridine-3-carboxamide], the “MEC (minimum effective concentration)” value turned out to be 1.0 µM. As to `Cc1cc(OCc2c(F)cccc2F)n2nc(C)c(C(=O)NC3(c4ccc(F)c(F)c4)CC3)c2c1` [Example 90, 7-[(2,6-Difluorobenzyl)oxy]-N[1-(3,4-difluorophenyl)cyclopropyl]-2,5-dimethylpyrazolo[1,5-a]pyridine-3-carboxamide], the “MEC (minimum effective concentration)” value is 0.1 µM.

For `CCCC(C)(N)CNC(=O)c1cnn2c(OCc3c(F)cccc3F)cc(C)cc12` (single isomer, unassigned) [Example 53, ent-N-(2-Amino-2-methylpentyl)-7-[(2,6-difluorobenzyl)oxy]-5-methylpyrazolo[1,5-a]pyridine-3-carboxamide], the “MEC (minimum effective concentration)” value was determined as 3.0 µM. For `CCC(CO)(CO)NC(=O)c1c(C)nn2c(OCc3c(F)ccc(F)c3F)cc(C)cc12` [Example 28, N-[1-Hydroxy-2-(hydroxymethyl)butan-2-yl]-2,5-dimethyl-7-[(2,3,6-trifluorobenzyl)oxy]pyrazolo[1,5-a]pyridine-3-carboxamide], the “MEC (minimum effective concentration)” value was 1.0 µM. As to `Cc1cc(OCc2c(F)cccc2F)n2nc(C)c(C(=O)NCC(N)c3csc(C)n3)c2c1` (racemic) [Example 73, rac-N-[2-Amino-2-(2-methyl-1,3-thiazol-4-yl)ethyl]-7-[(2,6-difluorobenzyl)oxy]-2,5-dimethylpyrazolo[1,5-a]pyridine-3-carboxamide trifluoroacetate], the “MEC (minimum effective concentration)” value turned out to be 3.0 µM. With `Cc1cc(OCc2c(F)ccc(F)c2F)n2nc(C)c(C(=O)NCc3ncc[nH]3)c2c1` [Example 18, N-(1H-Imidazol-2-ylmethyl)-2,5-dimethyl-7-[(2,3,6-trifluorobenzyl)oxy]pyrazolo[1,5-a]pyridine-3-carboxamide], the “MEC (minimum effective concentration)” value is 3.0 µM. Take `Cc1cc(OCc2c(F)ccc(F)c2F)n2nc(C)c(C(=O)NCCC3(O)CCCC3)c2c1` [Example 5, N-[2-(1-Hydroxycyclopentyl)ethyl]-2,5-dimethyl-7-[(2,3,6-trifluorobenzyl)oxy]pyrazolo[1,5-a]pyridine-3-carboxamide]: the “MEC (minimum effective concentration)” value was 0.3 µM. Take `Cc1cc(OCc2c(F)ccc(F)c2F)n2nc(C)c(C(=O)NCc3ccccc3-n3ccnc3)c2c1` [Example 32, N-[2-(1H-Imidazol-1-yl)benzyl]-2,5-dimethyl-7-[(2,3,6-trifluorobenzyl)oxy]pyrazolo[1,5-a]pyridine-3-carboxamide]: the “MEC (minimum effective concentration)” value came out at 0.3 µM.

As to `CCC(C)(N)CNC(=O)c1c(C2CC2)nn2c(OCc3c(F)cccc3F)cc(C)cc12` (single isomer, unassigned) [Example 54, ent-N-(2-Amino-2-methylbutyl)-2-cyclopropyl-7-[(2,6-difluorobenzyl)oxy]-5-methylpyrazolo[1,5-a]pyridine-3-carboxamide], the “MEC (minimum effective concentration)” value was found to be 0.3 µM. Regarding `Cc1cc(OCc2c(F)cccc2F)n2nc(C)c(C(=O)NC[C@@H]3CCCCN3)c2c1` [Example 129, 7-[(2,6-Difluorobenzyl)oxy]-2,5-dimethyl-N-[(2S)-piperidin-2-ylmethyl]pyrazolo[1,5-a]pyridine-3-carboxamide], the “MEC (minimum effective concentration)” value worked out at 3.0 µM. Under `Cc1cc(OCc2c(F)cccc2F)n2nc(C)c(C(=O)NCCC(C)(C)N)c2c1` [Example 121, N-(3-Amino-3-methylbutyl)-7-[(2,6-difluorobenzyl)oxy]-2,5-dimethylpyrazolo[1,5-a]pyridine-3-carboxamide] stands 10 µM; under `CCCC[C@@H](C)NC(=O)c1c(C)nn2c(OCc3c(F)cccc3F)cc(C)cc12` [Example 94, 7-[(2,6-Difluorobenzyl)oxy]-N-[(2R)-hexan-2-yl]-2,5-dimethylpyrazolo[1,5-a]pyridine-3-carboxamide], 1.0 µM; under `CCCC(C)(N)CNC(=O)c1c(C)nn2c(OCc3c(F)cccc3F)cc(C3CC3)cc12` (racemic) [Example 167, rac-N-(2-Amino-2-methylpentyl)-5-cyclopropyl-7-[(2,6-difluorobenzyl)oxy]-2-methylpyrazolo[1,5-a]pyridine-3-carboxamide], 3.0 µM. `Cc1cc(OCc2c(F)cccc2F)n2nc(C)c(C(=O)NCC3(N)CC3)c2c1` [Example 118, N-[(1-Aminocyclopropyl)methyl]-7-[(2,6-difluorobenzyl)oxy]-2,5-dimethylpyrazolo[1,5-a]pyridine-3-carboxamide]: the “MEC (minimum effective concentration)” value worked out at 0.3 µM. Consider `Cc1cc(OCc2c(F)ccc(F)c2F)n2nc(C)c(C(=O)Nc3cnn(CC(F)(F)F)c3)c2c1` [Example 17, 2,5-Dimethyl-7-[(2,3,6-trifluorobenzyl)oxy]-N-[1-(2,2,2-trifluoroethyl)-1H-pyrazol-4-yl]pyrazolo[1,5-a]pyridine-3-carboxamide], for which the “MEC (minimum effective concentration)” value is 0.3 µM.

Take `CCCC(C)(N)CNC(=O)c1c(C)nn2c(OCCC(C)C)cc(C)cc12` (racemic) [Example 160, rac-N-(2-Amino-2-methylpentyl)-2,5-dimethyl-7-(3-methylbutoxy)pyrazolo[1,5-a]pyridine-3-carboxamide]: the “MEC (minimum effective concentration)” value was found to be 3.0 µM. Consider `Cc1cc(OCc2c(F)ccc(F)c2F)n2nc(C)c(C(=O)Nc3c(C)nn(CCO)c3C)c2c1` [Example 11, N-[1-(2-Hydroxyethyl)-3,5-dimethyl-1H-pyrazol-4-yl]-2,5-dimethyl-7-[(2,3,6-trifluorobenzyl)oxy]pyrazolo[1,5-a]pyridine-3-carboxamide], for which the “MEC (minimum effective concentration)” value is 1.0 µM.

Take `Cc1cc(OCc2c(F)cccc2F)n2nc(C)c(C(=O)N[C@@H]3CNC[C@@H]3F)c2c1` (relative stereo) [Example 128, rel-7-[(2,6-Difluorobenzyl)oxy]-N-[(3R,4S)-4-fluoropyrrolidin-3-yl]-2,5-dimethylpyrazolo[1,5-a]pyridine-3-carboxamide]: the “MEC (minimum effective concentration)” value turned out to be 1.0 µM. On to `Cc1cc(OCc2c(F)cccc2F)n2nc(C)c(C(=O)N[C@@H](CO)c3nnc([C@@H](N)C(C)C)o3)c2c1` [Example 179, N-[(1S)-1-{5-[(1S)-1-Amino-2-methylpropyl]-1,3,4-oxadiazol-2-yl}-2-hydroxyethyl]-7-[(2,6-difluorobenzyl)oxy]-2,5-dimethylpyrazolo[1,5-a]pyridine-3-carboxamide], for which the “MEC (minimum effective concentration)” value is 10 µM. Turning to `Cc1cc(OCc2c(F)cccc2F)n2nc(C)c(C(=O)NNC(=O)CN3CCCC3=O)c2c1` [Example 175, 7-[(2,6-Difluorobenzyl)oxy]-2,5-dimethyl-N′-[(2-oxopyrrolidin-1-yl)acetyl]pyrazolo[1,5-a]pyridine-3-carbohydrazide trifluoroacetate], the “MEC (minimum effective concentration)” value is 10 µM. Take `Cc1cc(OCc2c(F)cccc2F)n2nc(C)c(C(=O)NC3CCCc4cc(F)ccc43)c2c1` (racemic) [Example 150, rac-7-[(2,6-Difluorobenzyl)oxy]-N-(6-fluoro-1,2,3,4-tetrahydronaphthalen-1-yl)-2,5-dimethylpyrazolo[1,5-a]pyridine-3-carboxamide]: the “MEC (minimum effective concentration)” value is 0.3 µM.

As to `Cc1cc(OCc2c(F)ccc(F)c2F)n2nc(C)c(C(=O)NCCN3CCOCC3)c2c1` [Example 15, 2,5-Dimethyl-N-[2-(morpholin-4-yl)ethyl]-7-[(2,3,6-trifluorobenzyl)oxy]pyrazolo[1,5-a]pyridine-3-carboxamide], the “MEC (minimum effective concentration)” value amounted to 3.0 µM.

These data come from patent publication US9422285B2, “Substituted pyrazolo[1,5-A]-pyridine-3-carboxamides and use thereof” (Bayer Pharma Aktiengesellschaft, priority 2014, dated 2016).
